Source: patent US20240109853A1 (Shanghai Yao Yuan Biotechnology Co., Ltd., priority 2020, published 2024)

The molecules below were run against ALPK1 (Homo sapiens (Human), UniProt Q96QP1) (assay: ALPK1 in vitro kinase assay (HTRF of TIFA phosphorylation)). Details: not given.
ALPK1, sequence (Q96QP1 whole entry): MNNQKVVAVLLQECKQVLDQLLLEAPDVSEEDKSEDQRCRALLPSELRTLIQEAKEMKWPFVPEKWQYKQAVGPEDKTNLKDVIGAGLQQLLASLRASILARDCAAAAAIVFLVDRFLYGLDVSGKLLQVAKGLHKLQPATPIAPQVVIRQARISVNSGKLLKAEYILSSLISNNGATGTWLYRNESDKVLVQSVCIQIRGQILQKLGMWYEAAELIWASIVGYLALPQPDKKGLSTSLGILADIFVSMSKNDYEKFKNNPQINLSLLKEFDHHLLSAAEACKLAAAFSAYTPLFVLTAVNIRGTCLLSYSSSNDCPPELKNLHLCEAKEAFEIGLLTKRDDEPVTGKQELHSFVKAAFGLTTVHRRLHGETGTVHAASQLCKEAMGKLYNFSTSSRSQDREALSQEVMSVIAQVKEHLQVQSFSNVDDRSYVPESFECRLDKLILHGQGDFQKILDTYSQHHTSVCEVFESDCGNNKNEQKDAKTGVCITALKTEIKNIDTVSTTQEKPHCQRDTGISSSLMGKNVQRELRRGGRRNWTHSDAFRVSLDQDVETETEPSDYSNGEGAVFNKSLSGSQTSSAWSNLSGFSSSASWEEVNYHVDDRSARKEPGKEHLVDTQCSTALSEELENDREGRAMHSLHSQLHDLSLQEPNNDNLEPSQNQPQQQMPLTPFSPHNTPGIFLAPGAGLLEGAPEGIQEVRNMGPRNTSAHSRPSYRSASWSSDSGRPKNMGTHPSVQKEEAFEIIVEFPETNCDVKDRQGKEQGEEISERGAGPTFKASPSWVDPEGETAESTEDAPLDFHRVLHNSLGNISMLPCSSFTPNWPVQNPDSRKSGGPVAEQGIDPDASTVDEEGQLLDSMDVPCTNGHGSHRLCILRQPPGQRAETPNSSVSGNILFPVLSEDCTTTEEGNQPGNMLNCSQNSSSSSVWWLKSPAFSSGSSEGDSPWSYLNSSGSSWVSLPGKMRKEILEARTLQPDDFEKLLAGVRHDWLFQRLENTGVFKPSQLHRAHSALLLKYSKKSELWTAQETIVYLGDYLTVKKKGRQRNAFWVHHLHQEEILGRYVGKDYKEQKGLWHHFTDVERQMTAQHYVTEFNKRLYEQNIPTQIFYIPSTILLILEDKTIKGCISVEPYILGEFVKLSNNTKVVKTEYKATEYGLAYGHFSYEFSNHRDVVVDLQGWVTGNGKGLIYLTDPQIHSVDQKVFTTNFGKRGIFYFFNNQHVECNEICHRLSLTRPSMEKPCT
Type: biochemical
`CC(C)(c1ccc(Br)cc1)c1csc(NC(=O)NCc2cnc(NCCN3CCNCC3)nc2)n1` [Example A206, 1-(4-(2-(4-bromophenyl)propan-2-yl)thiazol-2-yl)-3-((2-((2-(piperazin-1-yl)ethyl)amino)pyrimidin-5-yl)methyl)urea] was tested, and the IC50 was 68 nM.
Molecule `COc1ccc(C(C)(C)c2csc(NC(=O)NCc3ccc(NCCO)cc3)n2)cc1` [Example A109, 1-(4-((2-hydroxyethyl)amino)ben-zyl)-3-(4-(2-(4-methoxyphenyl)propan-2-yl)thiazol-2-yl)urea] has an IC50 of 146 nM.
Molecule `CC(C)(c1ccc(Br)cn1)c1csc(NC(=O)NCc2ccc(N3CCNCC3)c(F)c2)n1` [Example A057, 1-(4-(2-(5-bromopyridin-2-yl)propan-2-yl)thiazol-2-yl)-3-(3-fluoro-4-(piperazin-1-yl)benzyl)urea] has an IC50 of 246 nM.
In the case of `COc1ccc(C(C)(C)c2csc(NC(=O)NCC(=O)CO)n2)cc1` [Example A074, 1-(3-hydroxy-2-oxopropyl)-3-(4-(2-(4-methoxyphenyl)propan-2-yl)thiazol-2-yl)urea], the IC50 is reported as 61 nM.

Same assay, conditions: ALPK1 2 nM, TIFA substrate, ADP-Heptose activator, HTRF readout
`COc1ccc(C(C)(C)c2csc(NC(=O)c3ccc(N4CCN(CCO)CC4)cc3)n2)cc1` [Example B006, 4-(4-(2-hydroxyethyl)piperazin-1-yl)-N-(4-(2-(4-methoxyphenyl)propan-2-yl)thiazol-2-yl)benzamide] was tested, and the IC50 was 595 nM.
With `C#C[C@@](C)(c1ccc(Cl)cc1)c1nc(NC(=O)c2c(F)cc(N3CCNCC3)cc2F)sc1Cl` [Example C020, (S)-N-(5-chloro-4-(2-(4-chlorophenyl)but-3-yn-2-yl)thiazol-2-yl)-2,6-difluoro-4-(piperazin-1-yl)benzamide] the IC50 was 88 nM.
`COc1ccc(C(C)(C)c2csc(NC(=O)c3cc(I)cc(I)c3O)n2)cc1` [Example B050, 2-hydroxy-3,5-diiodo-N-(4-(2-(4-methoxyphenyl)propan-2-yl)thiazol-2-yl)benzamide] gave an IC50 of 77 nM.
`CC(C)(c1ccc(Br)cc1)c1csc(NC(=O)c2ccc(N3CCN(CCO)CC3)nc2)n1` [Example B054, N-(4-(2-(4-bromophenyl)propan-2-yl)thiazol-2-yl)-6-(4-(2-hydroxyethyl)piperazin-1-yl)nicotinamide] showed an IC50 of 269 nM.
Molecule `CC(C)(c1ccc(Br)cc1)c1csc(NC(=O)c2ccc(C(N)=O)cc2)n1` [Example B003, N-(4-(2-(4-bromophenyl)propan-2-yl)thiazol-2-yl)terephthalamide] has an IC50 of 192 nM.
Molecule `COc1ccc(C(C)(C)c2csc(NC(=O)c3ccc(N4CCNCC4)c(OC)c3)n2)cc1` [Example B039, 3-methoxy-N-(4-(2-(4-methoxyphenyl)propan-2-yl)thiazol-2-yl)-4-(piperazin-1-yl)benzamide] has an IC50 of 123 nM.
`C#C[C@@](C)(c1ccc(F)cc1)c1csc(NC(=O)c2ccc(N3CCNCC3CO)cc2)n1` (stereo in doubt) [Example B069, N-[4-[1-(4-fluorophenyl)-1-methyl-prop-2-ynyl]thiazol-2-yl]-4-[2-(hydroxymethyl)piperazin-1-yl]benzamide] showed an IC50 of 20 nM.
With `COc1ccc(C(C)(C)c2csc(NC(=O)c3ccc(N4CCC(N)C4)cc3)n2)cc1` (centres unmarked) [Example B041, 4-(3-aminopyrrolidin-1-yl)-N-(4-(2-(4-methoxyphenyl)propan-2-yl)thiazol-2-yl)benzamide] the IC50 was 80 nM.
In the case of `COc1ccc(C(C)(C)c2csc(NC(=O)c3cccc(N4CCNCC4)c3)n2)cc1` [Example B004, N-(4-(2-(4-methoxyphenyl)propan-2-yl)thiazol-2-yl)-3-(piperazin-1-yl)benzamide], the IC50 is reported as 211 nM.
`C#C[C@](C)(c1ccc(Cl)cc1)c1csc(NC(=O)c2c(F)cc(N3CCNCC3CO)cc2F)n1` (stereo in doubt) [Example B098, N-[4-[1-(4-chlorophenyl)-1-methyl-prop-2-ynyl]thiazol-2-yl]-2,6-difluoro-4-[2-(hydroxymethyl)piperazin-1-yl]benzamide] was tested, and the IC50 was 20 nM.
With `COc1ccc(C(C)(C)c2csc(NC(=O)c3ccc(N4CCNCC4)cc3Cl)n2)cc1` [Example B008, 2-chloro-N-(4-(2-(4-methoxyphenyl)propan-2-yl)thiazol-2-yl)-4-(piperazin-1-yl)benzamide] the IC50 was 37 nM.
For `C#C[C@@](C)(c1ccc(F)cc1)c1csc(NC(=O)c2c(F)cc(N3CCC(N)C3)cc2F)n1` (stereo in doubt) [Example B090, 4-(3-aminopyrrolidin-1-yl)-2,6-difluoro-N-(4-(2-(4-fluorophenyl)but-3-yn-2-yl)thiazol-2-yl)benzamide], the IC50 was 107 nM.
`CC(C)(c1ccc(Br)cc1)c1csc(NC(=O)c2ccc(N3CCNCC3)nc2)n1` [Example B035, N-(4-(2-(4-bromophenyl)propan-2-yl)thiazol-2-yl)-6-(piperazin-1-yl)nicotinamide] was tested, and the IC50 was 75 nM.
For `COc1ccc(C(C)(C)c2csc(NC(=O)c3ccc(OC4CCN(CCO)CC4)cc3)n2)cc1` [Example B020, 4-((1-(2-hydroxyethyl)piperidin-4-yl)oxy)-N-(4-(2-(4-methoxyphenyl)propan-2-yl)thiazol-2-yl)benzamide], the IC50 was 170 nM.
`Cc1ccc(C(C)(C)c2csc(NC(=O)c3ccc(N4CCNCC4)nc3)n2)cc1` [Example B045, 6-(piperazin-1-yl)-N-(4-(2-(p-tolyl)propan-2-yl)thiazol-2-yl)nicotinamide] was tested, and the IC50 was 30 nM.
For `C#CC(C)(c1ccc(F)cc1)c1csc(NC(=O)c2c(F)cc(-c3c[nH]n(C)c3=O)cc2F)n1` (centres unmarked) [Example B103, 2,6-difluoro-N-(4-(2-(4-fluorophenyl)but-3-yn-2-yl)thiazol-2-yl)-4-(2-methyl-3-oxo-2,3-dihydro-1H-pyrazol-4-yl)benzamide], the IC50 was 5140 nM.
With `C#C[C@@](C)(c1ccc(Cl)cc1)c1csc(NC(=O)c2c(F)cc(N3CCC(N)C3)cc2F)n1` (stereo in doubt) [Example B087, 4-(3-aminopyrrolidin-1-yl)-N-(4-(2-(4-chlorophenyl)but-3-yn-2-yl)thiazol-2-yl)-2,6-difluorobenzamide] the IC50 was 38 nM.
With `CC(C)(c1ccc(Br)cc1)c1csc(NC(=O)c2ccc(CN3CCN(CCO)CC3)nc2)n1` [Example B051, N-(4-(2-(4-bromophenyl)propan-2-yl)thiazol-2-yl)-6-((4-(2-hydroxyethyl)piperazin-1-yl)methyl)nicotinamide] the IC50 was 61 nM.
`COCC(C)(c1ccc(OC)cc1)c1csc(NC(=O)c2c(F)cc(N3CCNCC3)cc2F)n1` (centres unmarked) [Example C021, 2,6-difluoro-N-(4-(1-methoxy-2-(4-methoxyphenyl)propan-2-yl)thiazol-2-yl)-4-(piperazin-1-yl)benzamide] was tested, and the IC50 was 44 nM.
Work on `Cc1ccc(C(C)(C)c2csc(NC(=O)c3ccc(CN4CCN(CCO)CC4)cc3)n2)cc1` [Example B058, 4-((4-(2-hydroxyethyl)piperazin-1-yl)methyl)-N-(4-(2-(p-tolyl)propan-2-yl)thiazol-2-yl)benzamide] yielded an IC50 of 68 nM.
`C#CC(C)(c1ccc(Br)cc1)c1csc(NC(=O)[C@H]2C[C@H](CO)C2)n1` (mixture of isomers) [Example D005, rac-(1r,3r)-N-(4-(2-(4-bromophenyl)but-3-yn-2-yl)thiazol-2-yl)-3-(hydroxymethyl)cyclobutanecarboxamide] was tested, and the IC50 was 98 nM.
`CN1CCN(c2cc(F)c(C(=O)Nc3nc(C4(c5ccc(Br)cc5)CCCC4)cs3)c(F)c2)CC1` [Example C030, N-(4-(1-(4-bromophenyl)cyclopentyl)thiazol-2-yl)-2,6-difluoro-4-(4-methylpiperazin-1-yl)benzamide] showed an IC50 of 1770 nM.
